Test in all cases: growth of human tumour cells (NCI), 48 h
In assay [1] the test system is OVCAR-3 ovarian.
The test system of assay [2] is IGROV1 ovarian.
The test system of assay [3] is SW-620 colon.
Assay [4] relates to SK-MEL-28 melanoma.
For assay [5], the system named is SF-268 CNS.
Assay [6] deals with CAKI-1 renal.
The subject of assay [7] is OVCAR-5 ovarian.
Assay [8] concerns A498 renal.
Assay [9] relates to PC-3 prostate.

The text below walks through data of PubChem BioAssay (NCI).

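Values below derive from 48-hour exposures of cells grown in 96-well plates, with endpoints linearly interpolated between the two concentrations bracketing the appropriate inhibition level. GI50 marks 50% less growth. TGI: total growth inhibition.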

As to `O=C1C2CC=CCC2C(=O)C12CCc1ccccc12` (configuration not stated), the TGI in [1], in assay [2], in assay [3], in [4], in [5] and in assay [6] was more than 100 µM each time.

As to `NC(CC(=O)Nc1ccc(Cl)cc1)=Nc1ccccc1`, the TGI in assay [1], in assay [2], in assay [7], in [3], in assay [8] and in assay [4] was more than 100 µM in each case. Besides, the TGI in assay [5] and in [6] was more than 100 µM throughout.

As for `CCOc1ccccc1N1C(=O)C(=O)C(c2nc3ccccc3o2)/C(=N\N)C1=O` (configuration not stated), the TGI in assay [1], in assay [2], in assay [7], in assay [3], in assay [8] and in assay [4] was more than 100 µM each time. The TGI in [5] and in assay [6] was more than 100 µM throughout.

As for `CCO/C=C1\N=C(C(Cl)c2ccccc2)OC1=O` (configuration not stated), the TGI in assay [1], in [2], in assay [7], in assay [3], in assay [8] and in [4] was more than 100 µM in each case. Also, the TGI in assay [5] and in assay [6] was more than 100 µM throughout.

With `C/C(CC(=O)Nc1ccc(Cl)cc1)=N\NC(=O)C[n+]1ccccc1`, the TGI in [1], in assay [2], in assay [7], in assay [3], in [4] and in assay [5] was more than 100 µM in each case.

Take `O=c1nc(NC(c2ccccc2)(c2ccccc2)c2ccccc2)ccn1CCO`: the TGI in assay [1], in assay [2], in assay [7], in assay [3], in [8] and in assay [4] was more than 100 µM throughout. Also, the TGI in assay [5] is more than 100 µM.

With `CSc1nc(SC)c2c(C(N)=S)[nH]nc2n1`, the TGI in [1] was 57.8 µM; in [2] it was 94.4 µM; in assay [3], more than 100 µM; in assay [8] it was 71.7 µM; in assay [4], 99.5 µM; in assay [5], more than 100 µM. Also, the TGI in assay [6] came out at 56.5 µM.

Consider `COc1cc(C=O)c(-c2cc3c(cc2C2(C)OCCS2)OCO3)c(OC)c1OC` (configuration not stated), for which the TGI is 13.6 µM in assay [1]; more than 169 µM in [2]; 129 µM in assay [7]; 39.6 µM in [3]; 23.9 µM in [8]; 26 µM in [4]. The figures for the TGI in [5] and in assay [6] were more than 239 µM and 71.4 µM, respectively.

`Nc1nc(NC2C=C(CO)C(O)C2O)c([N+](=O)[O-])c(=O)[nH]1` (configuration not stated): the TGI in [1], in assay [2], in assay [7], in assay [3], in assay [8] and in assay [4] was more than 100 µM in each case. In addition, the TGI in assay [5] and in [6] was more than 100 µM throughout.

Take `CC(C)(O)[C@@H]1CC[C@@]2(C)CCC[C@H](O)[C@H]2C1`: the TGI in assay [1], in [2], in assay [7], in assay [3], in assay [8] and in [4] was more than 100 µM in each case. For the same compound, the TGI in assay [5] and in assay [6] was more than 100 µM throughout.

Take `COc1ccc(C2=Nc3c/c(=C\c4c(O)[nH]c5ccc(Cl)cc45)ccc3=N2)cc1`: the GI50 was 1.53 µM in assay [1]; 2.16 µM in assay [2]; 1.86 µM in assay [7]; 1.41 µM in assay [3]; 1.33 µM in [8]; 1.59 µM in assay [4]. The GI50 in [5] was 2.09 µM; in assay [9], 1.56 µM. For the same compound, the TGI turned out to be 2.91 µM in assay [1]; 5.28 µM in assay [2]; 4 µM in [7]; 3.28 µM in [3]; 7.78 µM in assay [8]; 5.13 µM in assay [4]. In addition, the TGI was 5.47 µM in assay [5] and 4 µM in assay [9].

Take `O=C(NC12CC3CC(CC(C3)C1)C2)C(=O)c1c[nH]c2ccc([N+](=O)[O-])cc12`: the TGI in [1] is more than 100 µM; in assay [2], more than 100 µM; in assay [7], more than 100 µM; in assay [3] it was more than 100 µM; in assay [8] it was 98 µM; in assay [4] it was more than 100 µM. Moreover, the TGI is 43.4 µM in assay [5] and more than 100 µM in [6].

Take `COc1cc2cc3c4c(cc(OC)c(OC)c4c2cc1OC)CCN3C(=O)N(C)C`: the TGI in assay [1], in [2], in assay [7], in [3], in [8] and in [4] was more than 100 µM throughout. The TGI in assay [5] and in assay [6] was more than 100 µM each time.

As for `NC(=O)C(=Cc1ccc(CP(=O)(O)O)cc1)C(N)=O`, the TGI in assay [1], in assay [2], in assay [7], in assay [3], in [8] and in assay [4] was more than 100 µM each time. In assay [6], the TGI is more than 100 µM.

Regarding `COC(=O)c1ccc(NC(=O)c2cc(OC)c(OC)c(OC)c2)cc1`, the TGI in assay [1] is 7.77 µM; in [2], more than 100 µM; in assay [3], more than 100 µM; in assay [8], more than 100 µM; in [4], more than 100 µM; in assay [5], more than 100 µM.

Regarding `CCC(=O)C(C)C(=O)C(=O)C(=O)OC` (configuration not stated), the TGI in [1] was more than 100 µM; in assay [2], more than 100 µM; in assay [7], more than 100 µM; in assay [3], more than 45.7 µM; in [8], more than 100 µM; in assay [4] it was more than 100 µM. Also, the TGI in assay [5] and in assay [6] was more than 100 µM throughout.
